Starred links: 1 amine or outer side, 2 acyl side, 3 side chain; linkers in the order of their positions; H or OH if unused. Non-standard residues stand in square brackets, D forms with d. Residues, ends and D or L forms follow the SMILES beside them. X1 = O=C([C@H](Cc1cncn1CCCCc1cn(Cc2c(F)cccc2Oc2ccccc2)nn1)N[*:1])[*:2]; X3 = O=C([C@H](Cc1cncn1CCCCc1cn(Cc2ccc(F)c(Cl)c2)nn1)N[*:1])[*:2]; X4 = O=C([C@H](Cc1cncn1CCCCc1cn(Cc2ccc(F)cc2)nn1)N[*:1])[*:2]; X2 = O=C([C@H](Cc1cncn1CCCCc1cn(Cc2ccccc2)nn1)N[*:1])[*:2]; X5 = C#CCCCCn1cncc1C[C@H](N[*:1])C(=O)[*:2]; pT = C[C@@H](OP(=O)(O)O)[C@H](N)C(=O)O; Pra = C#CC[C@H](N)C(=O)O
Experiments:
Type in all cases: binding
Plk1 PBD = target: T1, Plk1 PBD (Homo sapiens, UniProt P53350); assay: Fluorescence polarization (FP) assay, isolated Plk1 PBD; conditions: for IC50: FP assay, average ± SEM
T1 construct: a plasmid encoding myc-tagged Plk1 PBD was purchased from Addgene; host or cells: HEK-293T
Protocol: (§1) Plasmids encoding the myc-tagged PBDs of Plk2 and Plk3 were generous gifts from Prof. […] The supernatant containing expressed protein was diluted into 8 mL of PBS (pH 7.4) containing protease/phosphatase inhibitor cocktail. This protein solution was added to a 1 mL bed of myc-agarose resin (Thermo Scientific, Waltham, MA, USA) and allowed to bind for 2 h at 4 °C with gentle rotation. The lysate was eluted and the resin was washed 4× with 4-(2-hydroxyethyl)-1-piperazineethanesulfonic acid (HEPES) buffered saline (HBS) containing 0.05% Tween-20, 1 mM dithiothreitol (DTT) and 1 mM ethylenediaminetetraacetic acid (EDTA). The bound PBD protein was then eluted with a 1 mg/mL solution of myc peptide ([…]) in HBS + 1 mM DTT and 1 mM EDTA. […] The concentration of the final protein solution was determined by absorbance at 280 nm and purity was determined by SDS-PAGE (sodium dodecyl sulfate-polyacrylamide gel electrophoresis) with Coomassie staining.
As previously reported, isolated PBD protein was diluted to a 2× working dilution in assay buffer (HEPES-buffered saline with 0.05% Tween-20, 1 mM DTT, and 1 mM EDTA). […] Inhibitors were serially diluted to generate 4× working dilutions in assay buffer containing 4% DMSO. 20 μL of 2× PBD solution was added to each well of a 384-well plate (0% binding controls received 20 μL of assay buffer). 10 μL of the 4× inhibitor solution (or DMSO blank) was added to corresponding wells and allowed to pre-incubate at RT for 30 min with shaking. The following sequences were utilized as fluorescent probes: 5CF-GPMQSpTPLNG-NH2 for Plk1 PBD; 5CF-GPMQTSpTPKNG-NH2 for Plk2 PBD and 5CF-PLATSpTPKNG-NH2 for Plk3 PBD [10]. Fluorescent probes were diluted to 40 nM (4×) in assay buffer and then 10 μL was added to each well. The plate was allowed to equilibrate at room temperature for (30 min) with shaking. […] The FP values were obtained in triplicate and normalized to 100% (no inhibitor) and 0% binding (no protein) controls. Normalized values were plotted versus concentration and analyzed using non-linear regression in GraphPad Prism 8 (GraphPad Software, San Diego, CA, USA) [log(inhibitor) vs. response-variable slope (four parameter) model].

full-length Plk1 = target: T2, full-length Plk1 (Homo sapiens, UniProt P53350); assay: ELISA assay using full-length Plk1
T2 construct: a plasmid encoding myc-tagged full-length Plk1 (Addgene, Plasmid #41160); host or cells: HEK-293T (crude cytosolic lysate, not purified)
Protocol: Following 48 h expression, cells were harvested, lysed in buffer (PBS, pH 7.4 with 0.5% NP-40 and protease/phosphatase inhibitor cocktail) using freeze/thaw cycles (3×) and centrifuged at 10,000× g for 10 min at 4 °C. The supernatant was removed to provide a crude cytosolic lysate containing overexpressed, myc-tagged Plk1 (total protein concentration determined by bicinchoninic acid (BCA) assay).
As previously reported [25, 26, 50] a biotinylated phosphopeptide (sequence: Biotin-Ahx-PMQS(pT)PLN-NH2) was diluted to 1 µM (from a 2 mM DMSO stock solution) in PBS (pH 7.4) and loaded onto the wells of a 96-well Neutravidin-coated plate (Pierce Biotechnology, ThermoFisher Scientific, Waltham, MA, USA) at 100 µL per well for 1 h (background control contained no biotinylated peptide). The wells were washed once with 150 µL PBST (PBS, pH 7.4 + 0.05% Tween-20), and then 100 µL of 1% BSA in PBS (pH 7.4) (blocking buffer) was added for 1 h. A cytosolic lysate-containing transiently expressed myc-tagged Plk1 protein was diluted to 300 µg/mL in PBS (pH 7.4) containing protease/phosphatase inhibitors (Pierce Biotechnology), mixed with competitive inhibitor (from a 10× stock in ~4% DMSO/PBS), and allowed to pre-incubate for 1 h (100 µL per well in a 96-well plate, 30 µg total protein). The blocked ELISA plate was washed 2× with PBST (PBS, pH 7.4 + 0.05% Tween-20) (150 µL) and the pre-incubated lysates were added to the plate and incubated (1 h). […] The wells were then washed 5× with PBST (150 µL) and incubated with Turbo TMB (3,3′,5,5′-tetramethyl benzidine substrate)-ELISA solution (Pierce Biotechnology) until the desired absorbance was reached (5–10 min). The reaction was quenched by the addition of 2 N aqueous H2SO4 and the absorbance was measured at 450 nm using a BioTek Synergy 2 96-well plate reader. Absorbance was plotted versus concentration (logM) and fit to a non-linear regression analysis using GraphPad Prism 8 software [model: log(inhibitor) vs. response-variable slope (four parameters)].

Plk2 PBD = assay: Fluorescence polarization (FP) assay, isolated Plk2 PBD; conditions: average ± SEM
Protocol: as §1
(§2) As previously reported, isolated PBD protein was diluted to a 2× working dilution in assay buffer (HEPES-buffered saline with 0.05% Tween-20, 1 mM DTT, and 1 mM EDTA). […] Normalized values were plotted versus concentration and analyzed using non-linear regression in GraphPad Prism 8 (GraphPad Software, San Diego, CA, USA) [log(inhibitor) vs. response-variable slope (four parameter) model].

Plk3 PBD = target: T3, Plk3 PBD (Homo sapiens, UniProt Q9H4B4); assay: Fluorescence polarization (FP) assay, isolated Plk3 PBD; conditions: average ± SEM
T3 sequence (Q9H4B4 418-646 limits assumed): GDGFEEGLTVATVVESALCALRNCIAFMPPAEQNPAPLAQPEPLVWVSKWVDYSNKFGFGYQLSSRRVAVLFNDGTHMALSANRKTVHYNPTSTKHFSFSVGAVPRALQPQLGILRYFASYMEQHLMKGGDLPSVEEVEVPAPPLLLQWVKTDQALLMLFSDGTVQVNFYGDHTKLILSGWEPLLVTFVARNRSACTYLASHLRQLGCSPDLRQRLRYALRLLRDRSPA
Protocol: as §1, §2

T2 sequence (P53350 whole entry): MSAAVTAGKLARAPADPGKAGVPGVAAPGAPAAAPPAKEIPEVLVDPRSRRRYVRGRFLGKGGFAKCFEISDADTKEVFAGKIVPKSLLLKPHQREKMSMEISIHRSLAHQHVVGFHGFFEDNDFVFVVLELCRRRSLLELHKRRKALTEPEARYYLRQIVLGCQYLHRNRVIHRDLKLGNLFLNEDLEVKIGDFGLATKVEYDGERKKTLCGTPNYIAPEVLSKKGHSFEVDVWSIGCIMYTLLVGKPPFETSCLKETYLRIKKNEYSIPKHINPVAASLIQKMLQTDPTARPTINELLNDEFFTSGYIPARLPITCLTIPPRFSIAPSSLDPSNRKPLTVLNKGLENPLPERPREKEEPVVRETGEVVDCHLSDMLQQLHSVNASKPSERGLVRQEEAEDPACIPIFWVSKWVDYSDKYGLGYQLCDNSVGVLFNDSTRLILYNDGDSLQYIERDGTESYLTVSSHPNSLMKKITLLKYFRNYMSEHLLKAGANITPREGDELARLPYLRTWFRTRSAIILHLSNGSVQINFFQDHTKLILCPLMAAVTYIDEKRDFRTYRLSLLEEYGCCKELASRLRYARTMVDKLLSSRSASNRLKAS
T1 sequence (P53350 326-603 limits assumed): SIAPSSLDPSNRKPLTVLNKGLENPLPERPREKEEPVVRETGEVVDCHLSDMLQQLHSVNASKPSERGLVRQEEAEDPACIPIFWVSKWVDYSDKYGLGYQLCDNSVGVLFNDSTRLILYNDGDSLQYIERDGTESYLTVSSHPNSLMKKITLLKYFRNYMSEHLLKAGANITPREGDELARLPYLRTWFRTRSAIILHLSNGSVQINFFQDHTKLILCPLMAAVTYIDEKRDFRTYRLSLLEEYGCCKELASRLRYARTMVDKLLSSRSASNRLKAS

`CC(=O)N1CCC[C@H]1C(=O)N[C@@H](CC(C)C)C(=O)N[C@@H](Cc1cncn1CCCCc1cn(Cc2ccccc2)nn1)C(=O)N[C@@H](CO)C(=O)N[C@H](C(N)=O)[C@@H](C)OP(=O)(O)O` [Peptide 3a] (Ac-PL[X2]S[pT]-NH2) was tested, and the “relative loss of Plk1 PBD-binding affinity versus peptide 2a” value (Plk1 PBD; FP) was ~8 fold and the IC50 (Plk1 PBD) was 110 ± 6.6 nM.
Compound `CC(=O)N1CCC[C@H]1C(=O)N[C@@H](CC(C)C)C(=O)N[C@@H](Cc1cncn1CCCCc1cn(Cc2ccc(F)cc2)nn1)C(=O)N[C@@H](CO)C(=O)N[C@H](C(N)=O)[C@@H](C)OP(=O)(O)O` [Peptide 3b] (Ac-PL[X4]S[pT]-NH2) has an IC50 (Plk1 PBD) of 100 ± 19 nM.
For `CC(=O)N1CCC[C@H]1C(=O)N[C@@H](CC(C)C)C(=O)N[C@@H](Cc1cncn1CCCCc1cn(Cc2ccc(F)c(Cl)c2)nn1)C(=O)N[C@@H](CO)C(=O)N[C@H](C(N)=O)[C@@H](C)OP(=O)(O)O` [Peptide 3c] (Ac-PL[X3]S[pT]-NH2), the IC50 (Plk1 PBD) was 130 ± 9.8 nM.
With `CC(=O)N1CCC[C@H]1C(=O)N[C@@H](CC(C)C)C(=O)N[C@@H](Cc1cncn1CCCCc1cn(Cc2c(F)cccc2Oc2ccccc2)nn1)C(=O)N[C@@H](CO)C(=O)N[C@H](C(N)=O)[C@@H](C)OP(=O)(O)O` [Peptide 3d] (Ac-PL[X1]S[pT]-NH2) the IC50 (full-length Plk1; ELISA, myc-tagged full-length Plk1 lysate, ± SEM, read-out: IC50 (nM) against full-length Plk1) was 12000 ± 2100 nM, the “Fold-change relative to isolated PBD value” (full-length Plk1; full-length Plk1 ELISA IC50 vs isolated PBD FP IC50) was 480 × and the “potency reduction in the full-length assay relative to the isolated PBD assay” value (full-length Plk1; full-length Plk1 ELISA vs isolated PBD FP) was 480 fold. It also gave an IC50 (Plk1 PBD) of 25 ± 1.6 nM, an IC50 (Plk2 PBD) of 5900 ± 420 nM and an IC50 (Plk3 PBD) of 9900 ± 2200 nM.
`C#CCCCCn1cncc1C[C@H](NC(=O)[C@H](CC(C)C)NC(=O)[C@@H]1CCCN1C(C)=O)C(=O)N[C@@H](CO)C(=O)N[C@H](C(N)=O)[C@@H](C)OP(=O)(O)O` [Peptide 13] (Ac-PL[X5]S[pT]-NH2) showed an IC50 (Plk1 PBD) of 1100 ± 45 nM.
`C#CC[C@H](NC(=O)[C@H](CC(C)C)NC(=O)[C@@H]1CCCN1C(C)=O)C(=O)N[C@@H](CO)C(=O)N[C@H](C(N)=O)[C@@H](C)OP(=O)(O)O` [Peptide 17] (Ac-PL[Pra]S[pT]-NH2) was tested, and the “loss of Plk1 PBD-binding affinity compared with parent peptide 1” value (Plk1 PBD; FP) was ~2 fold and the IC50 (Plk1 PBD) was 1000 ± 140 nM.

— paper PMC6515314 (Molecules, 2019)
